Data: PubChem BioAssay AID330 (DTP/NCI, 2004)
Several values for one entry are separate records, joined by “and”; a condition that tells them apart may be missing. Identical values can stand only once. Inconclusive results and toxic doses are left out.

Tested on: P388 leukemia ip, CD2F1 mice, survival T/C
Test: NCI In Vivo Anticancer Drug Screen. Data for tumor model P388 Leukemia (intraperitoneal) in CD2F1 (CDF1) mice
Conditions: endpoint: median survival time, higher = longer survival
Outline: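 Mice carrying the transplanted tumor received test compound or vehicle. Survival was recorded in each group, and the value is the treated-group measurement divided by that of the vehicle-treated control group.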

[1] = dose: 50.0 mg/kg/injection, schedule: Q01DX005 (ip), vehicle: saline with Tween-80
[2] = dose: 50.0 mg/kg/injection, schedule: Q01DX009 (ip), vehicle: saline
[3] = dose: 200.0 mg/kg/injection, schedule: Q01DX009 (ip), vehicle: saline
[4] = dose: 100.0 mg/kg/injection, schedule: Q01DX005 (ip), vehicle: saline with Tween-80
[5] = dose: 200.0 mg/kg/injection, schedule: Q01DX005 (ip), vehicle: saline with Tween-80
[6] = dose: 50.0 mg/kg/injection, schedule: Q01DX005 (ip), vehicle: Klucel (hydroxypropylcellulose) (HPC)
[7] = dose: 25.0 mg/kg/injection, schedule: Q01DX009 (ip), vehicle: saline

With `CCC(=O)N(C)[C@@H](C)C(=O)O[C@H]1CC(=O)N(C)c2cc(cc(OC)c2Cl)C/C(C)=C/C=C[C@@H](OC)[C@@]2(O)C[C@H](OC(=O)N2)[C@@H](C)[C@@H]2O[C@@]12C` the T/C (dose: 0.1 micrograms/kg/injection, schedule: Q01DX009 (ip), vehicle: saline) was 105 % of control, the T/C (dose: 0.2 micrograms/kg/injection, schedule: Q01DX009 (ip), vehicle: saline) was 123 % of control and the T/C (dose: 3.1 micrograms/kg/injection, schedule: Q01DX009 (ip), vehicle: saline + alcohol) was 160 % of control. For the same molecule, the T/C (dose: 3.1 micrograms/kg/injection, schedule: Q01DX009 (ip), vehicle: saline) was 150 % of control, the T/C (dose: 6.3 micrograms/kg/injection, schedule: Q01DX009 (ip), vehicle: saline + alcohol) was 151 % of control and the T/C (dose: 6.3 micrograms/kg/injection, schedule: Q01DX009 (ip), vehicle: saline) was 161 % of control.
With `Nc1nc2ccc(NCc3ccc(C(=O)NC(CCC(=O)O)C(=O)O)cc3)cc2c(=O)[nH]1` (centres undefined) the T/C (dose: 6.25 mg/kg/injection, schedule: Q01DX005 (ip), vehicle: saline with Tween-80) was 108 % of control, the T/C (dose: 12.5 mg/kg/injection, schedule: Q01DX005 (ip), vehicle: saline with Tween-80) was 108 % of control and the T/C (dose: 25.0 mg/kg/injection, schedule: Q01DX005 (ip), vehicle: saline with Tween-80) was 103 % of control and 108 % of control. The T/C [1] was 113 % of control and 117 % of control.
With `Oc1ccc2ccccc2c1C=NCCS` the T/C (dose: 60.0 mg/kg/injection, schedule: Q01DX005 (ip), vehicle: saline with Tween-80) was 87 % of control and the T/C (dose: 120.0 mg/kg/injection, schedule: Q01DX005 (ip), vehicle: saline with Tween-80) was 87 % of control.
`Cc1ccc2nc(-c3ccc4nc(-c5ccc(N=Nc6ccc(-c7nc8ccc(-c9nc%10ccc(C)c(S(=O)(=O)O)c%10s9)cc8s7)cc6)cc5)sc4c3)sc2c1S(=O)(=O)O` was tested, and the T/C [2] was 113 % of control and 116 % of control, the T/C (dose: 100.0 mg/kg/injection, schedule: Q01DX009 (ip), vehicle: saline) was 116 % of control and 121 % of control and the T/C [3] was 112 % of control and 123 % of control.
For `CSc1ncnc2c1ncn2C(SC)C(OC(C)=O)C(OC(C)=O)C(OC(C)=O)C(COC(C)=O)OC(C)=O` (centres undefined), the T/C [1] was 96 % of control, the T/C [4] was 97 % of control and the T/C [5] was 102 % of control.
With `C/C(CC(C)C(=O)O)=N/NC(N)=O` (centres undefined) the T/C [6] was 97 % of control, the T/C (dose: 100.0 mg/kg/injection, schedule: Q01DX005 (ip), vehicle: Klucel (hydroxypropylcellulose) (HPC)) was 97 % of control and the T/C (dose: 200.0 mg/kg/injection, schedule: Q01DX005 (ip), vehicle: Klucel (hydroxypropylcellulose) (HPC)) was 97 % of control.
For `CCCN(CCC)c1ncnc2[nH]ncc12`, the T/C (dose: 50.0 mg/kg/injection, schedule: Q01DX005 (ip), vehicle: saline) was 92 % of control and the T/C (dose: 100.0 mg/kg/injection, schedule: Q01DX005 (ip), vehicle: saline) was 92 % of control.
With `CN(c1ccccc1)c1c(Cl)c(=O)oc2c1ccc1nc(-c3ccccc3)sc12` the T/C [1] was 86 % of control, the T/C [4] was 90 % of control and the T/C [5] was 86 % of control.
For `CC1=CC(=NN=c2cc(C)n([O-])c(C)c2)C=C(C)[N+]1=O`, the T/C [7] was 118 % of control.
`CC(=O)C1(c2ccccc2)CCN(c2c3ccccc3nc3ccccc23)CC1` was tested, and the T/C (dose: 100.0 mg/kg/injection, schedule: Q04DX003 (ip), vehicle: Klucel (hydroxypropylcellulose) (HPC)) was 108 % of control and the T/C (dose: 200.0 mg/kg/injection, schedule: Q04DX003 (ip), vehicle: Klucel (hydroxypropylcellulose) (HPC)) was 111 % of control.
With `COc1ccc2ncc(COC(=O)NC3CCCCC3)c(COC(=O)NC3CCCCC3)c2c1` the T/C (dose: 12.5 mg/kg/injection, schedule: Q01DX005 (ip), vehicle: Klucel (hydroxypropylcellulose) (HPC)) was 91 % of control, the T/C (dose: 25.0 mg/kg/injection, schedule: Q01DX005 (ip), vehicle: Klucel (hydroxypropylcellulose) (HPC)) was 94 % of control and the T/C [6] was 88 % of control.
For `Nc1ccc(N=Nc2cccc3c2Oc2ccccc2O3)c(N)n1`, the T/C [1] was 98 % of control, the T/C [4] was 91 % of control and the T/C [5] was 105 % of control.
`COC(C(N)=O)c1ccccc1` (centres undefined) was tested, and the T/C (dose: 12.5 mg/kg/injection, schedule: Q01DX009 (ip), vehicle: saline) was 120 % of control, the T/C [7] was 110 % of control and the T/C [2] was 103 % of control. The T/C [3] was 103 % of control and the T/C (dose: 400.0 mg/kg/injection, schedule: Q01DX009 (ip), vehicle: saline) was 106 % of control.
`O=C(Nc1cccc(Cl)c1)OCC(COC(=O)Nc1cccc(Cl)c1)(COC(=O)Nc1cccc(Cl)c1)[N+](=O)[O-]` was tested, and the T/C [1] was 95 % of control, the T/C [4] was 98 % of control and the T/C [5] was 100 % of control.
In the case of `CCOc1ccccc1N=Nc1c(C)nn(C(N)=S)c1OCC`, the T/C (dose: 60.0 mg/kg/injection, schedule: Q01DX005 (ip), vehicle: Klucel (hydroxypropylcellulose) (HPC)) was 106 % of control, the T/C (dose: 120.0 mg/kg/injection, schedule: Q01DX005 (ip), vehicle: Klucel (hydroxypropylcellulose) (HPC)) was 116 % of control and the T/C (dose: 240.0 mg/kg/injection, schedule: Q01DX005 (ip), vehicle: Klucel (hydroxypropylcellulose) (HPC)) was 115 % of control.
With `CC1(C)CC(OC(=O)c2c3ccccc3c3ccc4cccc5ccc2c3c54)CC(C)(C)N1O` the T/C (dose: 50.0 mg/kg/injection, schedule: Q01DX009 (ip), vehicle: saline with Tween-80) was 91 % of control, the T/C (dose: 100.0 mg/kg/injection, schedule: Q01DX009 (ip), vehicle: saline with Tween-80) was 91 % of control and the T/C (dose: 200.0 mg/kg/injection, schedule: Q01DX009 (ip), vehicle: saline with Tween-80) was 90 % of control.
